From patent US20070072831A1, “Integrase inhibitor compounds” (GILEAD SCIENCES, INC., priority 2005, published 2007)

Legend:
[1] = test system: HIV-IIIb; test: Antiviral assay in MT-4 cells infected with HIV-IIIb; type: cell-based; conditions: MT4, 120 h; MT-4 cells, HIV-IIIb, 5 days; read-out: EC50 Range MT-4
Summary of the method: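 MT-4 cells mixed with HIV-IIIb at m.o.i. 0.1 and added at once to 5-fold serial compound dilutions (7 concentrations, triplicate) in medium with 10% FBS. After 5 days at 37° C, cell viability read by CellTiter-Glo chemiluminescence.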

[2] = target: HIV integrase (Human immunodeficiency virus type 1 group M subtype B, UniProt P04585); test: biochemical
Protocol: Representative compounds of the invention were tested for biological activity by methods including anti-HIV assay, measuring inhibition of HIV-integrase strand transfer catalysis, and cytotoxicity.
HIV Integrase Assay (IC50 Determination)
The HIV Integrase assay is carried out in Reacti-Bind High Binding Capacity Streptavidin coated plates (Pierce # 15502) in 100 μl reactions. The wells of the plate are rinsed once with PBS. Each well is then coated at room temperature for 1 h with 100 μl of 0.14 μM Donor DNA with the following sequence:
After coating, the plate was washed twice with PBS. 3′processing of the Donor DNA is started by adding 80 μl of Integrase/buffer mixture (25 mM HEPES, pH 7.3, 12.5 mM DTT, 93.75 mM NaCl, 12.5 mM MgCl2, 1.25% Glycerol, 0.3125 uM integrase) to each well. 3′processing is allowed to proceed for 30 min at 37° C., after which, 10 μl of test compound and 10 μl of 2.5 uM DIG-labeled Target DNA with the following sequence:
are added to each well to allow strand transfer to proceed for 30 min at 37° C. The plate is then washed three times with 2×SSC for 5 min and rinsed once with PBS. For detection of integrated product, 100 μl of a 1/2000 dilution of HRP-conjugated anti-DIG antibody (Pierce #31468) are added to each well and incubated for 1 hour. The plate was then washed three times for 5 min each, with 0.05% Tween-20 in PBS. For signal development and amplification, 100 μl of SuperSignal ELISA Femto Substrate (Pierce #37075) are added to each well. Chemiluminescence (in relative light units) is read immediately at 425 nm in the SPECTRAmax GEMINI Microplate Spectrophotometer using the end point mode at 5 sec per well.
For IC50 determinations, eight concentrations of test compounds in a 1/2.2 dilution series are used.

Structure (SMILES) | EC50 [1] [nM] | IC50 [2] [nM]
CS(=O)(=O)Nc1c2c(c(O)c3ncccc13)C(=O)N(Cc1ccc(F)cc1)C2 [Compound 125, N-(7-(4-fluorobenzyl)-9-hydroxy-8-oxo-7,8-dihydro-6H-pyrrolo[3,4-g]quinolin-5-yl)methanesulfonamide] | 60 to 1000 | < 60
CN(c1c2c(c(O)c3ncccc13)C(=O)N(Cc1ccc(Cl)c(Cl)c1)C2)S(C)(=O)=O [Compound 197, N-(7-(3,4-dichlorobenzyl)-9-hydroxy-8-oxo-7,8-dihydro-6H-pyrrolo[3,4-g]quinolin-5-yl)-N-methylmethanesulfonamide] | < 60 | 60 to 1000
CN(c1c2c(c(O)c3ncccc13)C(=O)N(Cc1ccc(F)nc1)C2)S(C)(=O)=O [Compound 97, N-(7-((6-fluoropyridin-3-yl)methyl)-9-hydroxy-8-oxo-7,8-dihydro-6H-pyrrolo[3,4-g]quinolin-5-yl)-N-methylmethanesulfonamide] | 60 to 1000 | 60 to 1000
CN(C)c1cccc2c(S(=O)(=O)N(C)c3c4c(c(O)c5ncccc35)C(=O)N(Cc3ccc(F)cc3)C4)cccc12 [Compound 154, 5-(dimethylamino)-N-(7-(4-fluorobenzyl)-9-hydroxy-8-oxo-7,8-dihydro-6H-pyrrolo[3,4-g]quinolin-5-yl)-N-methylnaphthalene-1-sulfonamide] | > 1000 | 60 to 1000
O=C1c2c(c(N3CCNS3(=O)=O)c3cccnc3c2O)CN1Cc1ccc(F)cc1 [Compound 214] | < 60 | < 60
Nc1c2c(c(O)c3ncccc13)C(=O)N(Cc1ccc(F)cc1)C2=O [Compound 8, 5-amino-7-(4-fluorobenzyl)-9-hydroxy-6H-pyrrolo[3,4-g]quinoline-6,8(7H)-dione] | > 1000 | 60 to 1000
